System: Plasmodium falciparum
Test: GSK_TCMDC: Inhibition of Plasmodium falciparum 3D7 in whole erythrocytes, using parasite LDH activity as an index of growth.
Format: functional, organism-based

| SMILES | XC50 (Plasmodium falciparum, 3D7) | XC50 |
| --- | --- | --- |
| CN1CCN(c2ccc(-c3cc(-c4cc(F)c(F)c(F)c4)cnc3N)cc2)CC1 | 1010 nM | – |
| O=C(Nc1ccccc1)Nc1cccc(-c2cc(CNCCc3ccccc3)sc2-c2ccncc2)c1 | 598 nM | – |
| CC(C)CN1C(=O)c2ccccc2C(C(=O)Nc2cccc(C#N)c2)C1c1cccs1 (stereo unspecified) | 159 nM | – |
| Cc1cnc(-c2ccc(NC(=O)N3CCc4cc5nccc(N6CCN7CCC[C@H]7C6)c5cc43)c3ccccc23)o1 | 858 nM | – |
| CCn1c(-c2nonc2N)nc2c(-c3cccc(NC(=O)Nc4ccccc4Cl)c3)ncc(OCCCN)c21 | 671 nM | – |
| CCCC(C)Nc1nc(C)cc(N[C@@H](CC(C)C)C(=O)NCCc2ccccc2)n1 (stereo partly specified) | 1360 nM | – |
| C[C@H]1CN(Cc2cccc(-c3cc(CNC(=O)c4cccc(CC5CCN(C)CC5)c4)ccc3F)c2)CCN1C | 1090 nM | – |
| Cc1ccccc1NC(=O)NC1CCN(CCCCCNC(=O)/C=C/c2ccc(Cl)c(Cl)c2)CC1 | 769 nM | – |
| COc1ccc(CN2CCN(CCOC(c3ccccc3)c3ccccc3)CC2)c(O)c1 | 1190 nM | – |
| O=C(Nc1nc2cc(S(=O)(=O)NCCc3cccc(F)c3)ccc2n1CCCn1ccnc1)c1ccc(Cl)cc1 | 1270 nM | – |
| CC(C)N1CCC(N(Cc2ccc(-c3ccc(Cl)cc3)cc2)C(=O)Cn2c(CCc3cccc(F)c3F)nc(=O)c3ccccc32)CC1 | 944 nM | – |
| N#Cc1ccc(CN2CCC(Oc3ccc(NC(=O)c4cccs4)cc3)C2)cc1 (stereo unspecified) | 953 nM | – |
| c1csc(-c2nc(NCC3CCCO3)ncc2-c2ccsc2)n1 (stereo unspecified) | 487 nM | – |
| O=C(Cc1cccnc1)Nc1cccc(-c2cccc(-c3nc4cc(C(F)(F)F)ccc4[nH]3)c2)c1 | 677 nM | – |
| OC(CNc1ccnc(Nc2ccccc2)n1)c1cccc(C(F)(F)F)c1 (stereo unspecified) | 646 nM | – |
| Cc1cc(=O)[nH]c(-n2nc(C)cc2NC(=O)C(c2ccccc2)c2ccccc2)n1 | 839 nM | – |
| O=c1ccc(CNc2nc(NCCc3ccccc3)nc3ccc(Cl)cc23)c[nH]1 | 783 nM | – |
| CCN(CCCN1CCCCC1)c1cc(C)nc(Nc2ccc(Cl)cc2C)n1 | 729 nM | – |
| CC(C)(C(=O)Nc1ccc(C2CCC(NCC3CC3)CC2)c(Cl)c1)c1ccc(C(F)(F)F)cc1 (stereo unspecified) | 965 nM | – |
| COc1cccc(NC(=O)[C@H](C)n2c(=O)[nH]c3ccccc3c2=O)c1 | 764 nM | – |
| O=C1CCCN1CCCNCc1ccc(-c2ccc(-c3nc4cc(F)ccc4[nH]3)cc2)cc1 | 603 nM | – |
| COc1ccc(N2CCN(CCCNC(=O)c3ccc(NC(=O)c4cc(Cl)cc(Cl)c4)cc3)CC2)c(OC)c1 | 269 nM | – |

| SMILES | XC50 (Plasmodium falciparum, 3D7) | XC50 |
| --- | --- | --- |
| O=C(Nc1ccc(-c2ccc(-c3nc4ccccc4[nH]3)s2)cc1)Nc1ccc(F)c(F)c1F | 194 nM | – |
| CN(C)CCN(C)Cc1ccc(-c2ccc(NC(=O)c3ccc(Cl)cc3)cc2)cc1 | 943 nM | – |
| Fc1cccc(COc2ccc(-n3ccc4c(NCCCn5ccnc5)ncnc43)cc2Cl)n1 | 1030 nM | – |
| COc1ccc(Nc2nc(=Nc3ccccc3)nc(NN=Cc3cc(Cl)ccc3O)[nH]2)cc1 | 647 nM | – |
| CCCCSc1c(CNCCCCCCNCc2ccc3ccccc3c2SCCCC)ccc2ccccc12 | 999 nM | – |
| O=C(OCC1CCN(Cc2ccccc2)C1)c1ccc(Cl)cc1 (stereo unspecified) | 680 nM | – |
| COc1cc2nc(Cl)nc(Nc3ccncc3)c2cc1OC | 1210 nM | – |
| O=C(Nc1ccccc1Br)N[C@@H]1CCN(c2ccnc3ccccc23)C1 | 935 nM | – |
| Oc1cc(-c2nc(-c3ccccc3)[nH]c2-c2ccncc2)ccc1Cl | 814 nM | – |
| Cc1ccc(NC(=O)c2ccc(CN3CCCN(Cc4cccc(O)c4)CC3)cc2)cc1 | 743 nM | – |
| Cc1cc(N[C@@H](CC(C)C)C(=O)NCCc2ccccc2)nc(NCCc2cccs2)n1 | 1200 nM | – |
| Cc1cccc2nc(-c3cccc(-c4ccc(CN5CCC(C(N)=O)CC5)cc4)c3)[nH]c12 | 853 nM | – |
| N#Cc1ccc(C(=O)NC2CCN(CCCCCNC(=O)/C=C/c3ccc(Cl)c(Cl)c3)CC2)cc1 | 836 nM | – |
| Cc1nc(N)nc(N)c1-c1cc(Cl)c(Cl)c(Cl)c1 | 834 nM | – |
| Fc1ccc2cc(C=Cc3ccncc3)[nH]c2c1 | 617 nM | – |
| N#Cc1cccc(NC(=O)NC2CCN(CCCCCNC(=O)/C=C/c3ccc(Cl)c(Cl)c3)CC2)c1 | 707 nM | – |
| Cc1cc(C)c(C(=O)Nc2n[nH]c3nnc(-c4cccc(F)c4F)cc23)c(C)c1 | 1070 nM | – |
| COc1cccc(OC)c1C(=O)Nc1cccc(-c2nn3ccccc3c2-c2ccnc(Nc3cccc(F)c3)n2)c1 | 749 nM | – |
| O=C(Nc1ccnc(-c2cccnc2)n1)c1cc(C(F)(F)F)cc(C(F)(F)F)c1 | 823 nM | – |
| Nc1ccn([C@@H]2O[C@H](COC(c3ccccc3)(c3ccccc3)c3ccccc3)[C@@H](O)[C@@H]2O)c(=O)n1 | 834 nM | – |
| O=C(Cc1ccccc1)NC(c1ccco1)c1cc(Cl)c2cccnc2c1O (stereo unspecified) | 691 nM | – |
| Cc1cc(-c2ccc(CNCc3ccsc3)cc2)ccc1S(=O)(=O)NCCN1CCCC1 | 725 nM | – |

| SMILES | XC50 (Plasmodium falciparum, 3D7) | XC50 |
| --- | --- | --- |
| O=C(Nc1cc(F)c(F)c(-c2cccnc2)c1)N1CCc2cc(Cl)c(Cl)cc21 | 844 nM | – |
| Oc1ccc(-c2cc(COc3ccccc3C(F)(F)F)c(C3=CCNCC3)cc2COc2ccccc2C(F)(F)F)cc1 | 775 nM | – |
| Oc1cccc(Nc2ccnc3cc(-c4ccncc4)ccc23)c1 | 1050 nM | – |
| O=C(/C=C/c1ccccc1Cl)NC1CCC(CN2CCC(c3c[nH]c4ccccc34)CC2)CC1 (stereo unspecified) | 603 nM | 849 nM |
| CN(CCC(CCN1CCC(c2c[nH]c3ccccc23)CC1)c1ccccc1)C(=O)Nc1ccc(Cl)c(Cl)c1 (stereo unspecified) | 1190 nM | – |
| CCn1c2ccccc2c2cc(C=NN=c3cc(C)[nH]c4ccccc34)ccc21 | 309 nM | – |
| Cn1nc(-c2cccc(CN[C@@H]3CCc4ccc(O)cc43)c2)c2cnc(NCCCN3CCCC3)nc21 | 831 nM | – |
| N#Cc1ccc(-c2ccc(C(=O)NCCCCN3CCC(n4cnc5ccccc54)CC3)cc2)cc1 | 910 nM | – |
| CNc1ccc(CNCc2cccc(-c3ccc(-c4nc5ccccc5[nH]4)s3)c2)cc1 | 734 nM | – |
| O=C(/C=C/c1ccc(Cl)c(Cl)c1)N1CCC(CN2CCC(Cc3nc4ccccc4[nH]3)CC2)CC1 | 254 nM | – |
| O=C(/C=C/c1ccc([N+](=O)[O-])cc1)N1CCC(NS(=O)(=O)c2cccc(C(F)(F)F)c2)CC1 | 847 nM | – |
| COc1ccc(CCN(C)CCOc2ccc(NC(=O)COc3ccc4sc5ccccc5c(=O)c4c3)cc2)cc1OC | 1100 nM | – |
| CCCC(=O)c1cnc2c(Oc3cc(Cl)ncn3)cccc2c1Nc1ccccc1C | 336 nM | – |
| O=C(Nc1ccccc1Cl)N(Cc1cc(Cl)cc(Cl)c1)CC(O)COc1ccc(Cl)c(F)c1 (stereo unspecified) | 788 nM | – |
| CCNC(=O)Nc1cccc(-c2ccc(-c3nc4cccc(C)c4[nH]3)s2)c1 | 766 nM | – |
| Cc1cc(NCc2ccccc2)nc(NCc2ccccc2)n1 | 974 nM | – |
| CN(C)CCN(Cc1ccccc1-c1ccc(CNCCc2ccccc2)cc1)C(=O)c1ccccc1 | 1700 nM | – |
| Cc1cccc2nc(-c3ccc(-c4ccc(CN5CCN(C6CCN(C)CC6)CC5)cc4)s3)[nH]c12 | 145 nM | – |
| NCC1CCCN1Cc1ccc(-c2cccc(-c3nc4cc(F)ccc4[nH]3)c2)cc1 (stereo unspecified) | 751 nM | – |
| O=C(Nc1cccc(CN2CCN(Cc3ccc(O)cc3)CC2)c1)c1cc2ccccc2o1 | 1180 nM | – |
| O=C(/C=C/c1ccc(Cl)c(Cl)c1)NCCCCCN1CCCN(C(=O)Nc2ccc(Cl)c(Cl)c2)CC1 | 864 nM | – |
| COc1cc(O)c2c(=O)c(OC)c(-c3cccc(Cl)c3OCC(=O)O)oc2c1OC | 586 nM | – |

| SMILES | XC50 (Plasmodium falciparum, 3D7) | XC50 |
| --- | --- | --- |
| CCN(CCCN1CCCCC1)c1cc(C)nc(Nc2cccc(C(F)(F)F)c2C)n1 | 609 nM | – |
| c1ccc(C(c2ccccc2)N2CCN(C(c3cccnc3)c3nnnn3C3CCCC3)CC2)cc1 (stereo unspecified) | 1080 nM | – |
| O=C(/C=C/c1ccc(Cl)c(Cl)c1)NCCCCCCN1CCN(C(=O)Nc2ccc(Cl)c(Cl)c2)CC1 | 931 nM | – |
| Cn1nccc1C(=O)NCCNCc1cccc(-c2ccc(-c3nc4cc(C(F)(F)F)ccc4[nH]3)cc2)c1 | 122 nM | – |
| CCCCn1c(SC(C)C)nc2c(c1=O)C1(CCCCC1)Cc1ccccc1-2 | 666 nM | – |
| CCCN(CCCCCCN(CCC)CCc1ccc(O)c(O)c1)CCc1ccc(O)cc1 | 1010 nM | – |
| CN(C)CCNCc1ccc(-c2ccc3c(Nc4ccc(Oc5ccccc5)cc4)ccnc3c2)o1 | 280 nM | – |
| COc1ccc2nccc([C@@H](O)CN3CCC(NC(=O)c4ccc(Cl)c(OC)c4)CC3)c2c1 | 792 nM | – |
| CC(=O)NCCNc1nccc(N2CCc3ncnc(Nc4ccc(OCc5ccccn5)c(Cl)c4)c3C2)n1 | 822 nM | – |
| Cc1cc2nc(-c3cc(Br)ccc3O)c(-c3cc(Br)ccc3O)nc2cc1C | 853 nM | – |
| Cc1cc(N[C@@H](CC(C)C)C(=O)NCc2cccs2)nc(Nc2ccccc2)n1 | 1130 nM | – |
| Cc1ccccc1Nc1cc(Nc2ccccc2C)c2ccccc2n1 | 782 nM | – |
| O=C(c1ccc([N+](=O)[O-])o1)N1CCN(c2nc3c(Cl)cccc3s2)CC1 | 980 nM | – |
| CC(C)C[C@H](NC(=O)c1cc2ccccc2s1)C(=O)N[C@H]1CCN(Cc2ccc(OC3CCN(C)C3)c(Cl)c2)C1 (stereo partly specified) | 782 nM | – |
| Cc1cc2ccc(-c3cccc(CN)c3)cc2nc1N | 758 nM | – |
| CN1CCN(c2ccc(Nc3nc(N)c4ccn(C5CCC5)c4n3)cc2)CC1 | 1220 nM | – |
| OC(CNc1ccnc(Nc2ccc(Cl)cc2)n1)c1cccc(C(F)(F)F)c1 (stereo unspecified) | 676 nM | – |
| CC(C)(CNC(=O)[C@@H]1CCCCN1)c1nc(-c2ccc(Cl)c(O)c2)c(-c2ccncc2)[nH]1 | 841 nM | – |
| CCN(CC)CCN(CCN(CC)CC)c1ccc(-c2nc3cc(Cl)c(Cl)cc3[nH]2)cc1 | 785 nM | – |

Reference: ChEMBL document CHEMBL1157539, “Thousands of chemical starting points for antimalarial lead identification” (Nature, 2010)
